By logP is commonly meant the decadic logarithm of the partition coefficient of the neutral form, usually between octanol and water. The term CC50 denotes the concentration at which the toxic effect on the cells reaches its halfway point. The MIC is the lowest concentration that inhibits growth of the organism.

Structures are written as SMILES. In brackets after ≈: the same amount, converted by molar mass. Activity calls are given as the source filed them. No cut-off for these calls is given here.

The nature of data set [1]: Selectivity index, ratio of CC50 for african green monkey Vero cells tp MIC for Mycobacterium tuberculosis H37Rv. Type of data set: functional.
Data set [2] can be described thus: Lipophilicity, log P of the compound. Type of data set: physicochemical. The settings on record: octanol/water.
Data set [3] in a line: Cytotoxicity against african green monkey Vero cells after 72 hrs by resazurin assay. The settings on record: chlorocebus sabaeus. Type of data set: cell-based. For orientation: The colour change of resazurin is a common sign of viable cells or microbes.
For data set [4], the system named is Mycobacterium tuberculosis. The data set is described as follows: Antimicrobial activity against Mycobacterium tuberculosis H37Rv by BACTEC radiometric method. Type of data set: functional.
Data set [5] deals with Mycobacterium tuberculosis. The experiment in a line: Antimicrobial activity against compound-sensitive Mycobacterium tuberculosis 2280 by agar dilution method and BACTEC radiometric method. Type of data set: functional. (In agar dilution the substance is mixed into plates at graded concentrations.)
Data set [6] concerns Mycobacterium tuberculosis. The data set is described as follows: Antimicrobial activity against Mycobacterium tuberculosis H37Rv infected in mouse J774A.1 cells assessed as growth inhibition at MIC. Type of data set: functional.
Data set [7] relates to Mycobacterium tuberculosis. Type of data set: functional, organism-based. The settings on record: H37Rv, 6.25 ug/ml.
Data set [8] has as its system Mycobacterium tuberculosis. The experiment in a line: Antimicrobial activity against Mycobacterium tuberculosis H37Rv infected in BALB/c mouse assessed as log10 reduction of bacterial growth in lungs at 100 mg/kg, po administered 6 days a week for 30 days starting from 2 days post infection relative to untreated control. Type of data set: functional.
Data set [9] concerns Mycobacterium tuberculosis. The experiment in a line: Antimicrobial activity against Mycobacterium tuberculosis H37Rv infected in BALB/c mouse assessed as log10 reduction of bacterial growth in lungs at 25 mg/kg, po administered 6 days a week for 30 days starting from 2 days post infection relative to untreated control. Type of data set: functional.

Turning to `COc1cc(OCCN2CCCCCC2)c2c(c1)C(C)(C)[C@H](c1ccccc1)[C@H]2c1ccccc1` (relative stereo), the “Selectivity Index” value in [1] was determined as 2.6. The same compound returned a logP in [2] of 7.66. Besides, in data set [3], the CC50 at 72 h amounted to 8.11 mg/L (≈ 17.3 µM). This compound gave an MIC in [4] of 3.12 mg/L (≈ 6.65 µM).

On to `COc1cc(OCCCN(C)C)c2c(c1)C(C)(C)[C@H](c1ccccc1)[C@H]2c1ccccc1` (relative stereo), for which the “Selectivity Index” value in [1] was determined as 1.4. This compound also displayed a logP in [2] of 6.62. In data set [3], this compound displayed a CC50 at 72 h of 4.59 mg/L (≈ 10.7 µM). Moreover, in data set [4], the lowest concentration to inhibit growth (MIC) was 3.12 mg/L (≈ 7.27 µM).

`COc1cc(OCCN2CCOCC2)c2c(c1)C(C)(C)[C@H](c1ccccc1)[C@H]2c1ccccc1` (relative stereo): the “Selectivity Index” value in [1] was 5.6. The logP in [2] came to 6.11. In [3], this compound had a CC50 at 72 h of 17.5 mg/L (≈ 38.2 µM). The same compound registered an MIC in data set [4] of 3.12 mg/L (≈ 6.83 µM).

In the case of `CCN(CC)CCOc1cc(OC)cc2c1[C@H](c1ccccc1)[C@@H](c1ccccc1)C2(C)C` (relative stereo), the “Selectivity Index” value in data set [1] is reported as 1.19. In data set [2], this compound gave a logP of 7.19. The CC50 at 72 h in [3] is 3.74 mg/L (≈ 8.43 µM). In data set [4], this compound displayed an MIC of 3.12 mg/L (≈ 7.04 µM).

Turning to `COc1cc(OCCN(C)C)c2c(c1)C(C)(C)[C@H](c1ccccc1)[C@H]2c1ccccc1` (relative stereo), the “Selectivity Index” value in data set [1] is 0.47. Moreover, the logP in [2] turned out to be 7.24. This compound also returned a cytotoxic concentration (CC50) at 72 h in data set [3] of 2.96 mg/L (≈ 7.12 µM). Also, in data set [4], 6.25 mg/L (≈ 15 µM) was the least that counted as inhibitory (MIC).

Take `COc1cc(OCCN2CCCCC2)c2c(c1)C(C)(C)[C@H](c1ccccc1)[C@H]2c1ccccc1` (relative stereo): in [1], the “Selectivity Index” value turned out to be 1.54. This compound also registered a logP in [2] of 6.57. The same compound showed a CC50 at 72 h in data set [3] of 2.41 mg/L (≈ 5.29 µM). The same compound displayed an MIC in data set [4] of 1.56 mg/L (≈ 3.42 µM).

In the case of `COc1cc(OCCN2CCCCC2)c2c(c1)C(C)(C)[C@H](c1ccccc1)[C@H]2c1c(OC)ccc2ccccc12` (relative stereo), the “Selectivity Index” value in data set [1] is listed as 3.53. Further, the logP in data set [2] is 8.11. Further, in data set [3], the CC50 at 72 h was 5.52 mg/L (≈ 10.3 µM). In data set [4], this compound registered an MIC of 1.56 mg/L (≈ 2.91 µM).

On to `COc1cc(OCCN2CCCC2)c2c(c1)C(C)(C)[C@H](c1ccccc1)[C@H]2c1ccccc1` (relative stereo), for which, in data set [1], the “Selectivity Index” value came to 2.39. Moreover, in data set [2], the logP turned out to be 6.83. This compound also returned a CC50 at 72 h in data set [3] of 7.49 mg/L (≈ 17 µM). For the same compound, the lowest concentration to inhibit growth in data set [4] (MIC) was 3.12 mg/L (≈ 7.08 µM).

Regarding `COc1cc(OCCN(C(C)C)C(C)C)c2c(c1)C(C)(C)[C@H](c1ccccc1)[C@H]2c1ccccc1` (relative stereo), the MIC in [5] and in data set [4] was 3.12 mg/L (≈ 6.63 µM) throughout. In data set [1], the “Selectivity Index” value was 15.73. Moreover, in [6], the “growth inhibition (GI)” value was greater than 90%. Moreover, in [7], the result was Active. In data set [2], the logP was 7.82. This compound also showed a CC50 at 72 h in data set [3] of 49.2 mg/L (≈ 104 µM). Besides, in data set [8], the log10cfu turned out to be 1.35.

With `COc1cc(OCCN2CCCCCC2)c2c(c1)C(C)(C)[C@H](c1ccccc1)[C@H]2c1c(OC)ccc2ccccc12` (relative stereo), the MIC in data set [5] and in data set [4] was 1.56 mg/L (≈ 2.84 µM) in each case. Also, the “Selectivity Index” value in data set [1] is recorded as 15.37. In data set [2], this compound displayed a logP of 8.53. In addition, in [3], the 50% cytotoxic concentration (CC50) at 72 h worked out at 24 mg/L (≈ 43.6 µM).

For `CC[C@@H](CO)NCCN[C@@H](CC)CO` [ETHAMBUTOL], the “Selectivity Index” value in data set [1] was found to be 77.02. The same compound had a logP in data set [2] of 0.14. In data set [3], this compound showed a CC50 at 72 h of 38.5 mg/L (≈ 188 µM). Besides, the lowest concentration to inhibit growth in data set [4] (MIC) was 0.5 mg/L (≈ 2.45 µM).

`NNC(=O)c1ccncc1` [ISONIAZID]: the log10cfu in data set [9] was determined as 2.8.

Turning to `CO[C@H]1/C=C/O[C@@]2(C)Oc3c(C)c(O)c4c(O)c(cc(O)c4c3C2=O)NC(=O)/C(C)=C\C=C\[C@H](C)[C@H](O)[C@@H](C)[C@@H](O)[C@@H](C)[C@H](OC(C)=O)[C@@H]1C` [RIFAMYCIN], the “Selectivity Index” value in data set [1] is recorded as 160.1. Also, the logP in data set [2] was determined as 3.71. In [3], the CC50 at 72 h amounted to 62.5 mg/L (≈ 89.5 µM). The MIC in data set [4] was 0.39 mg/L (≈ 0.559 µM).

These data come from ChEMBL document CHEMBL2346660, “Synthesis and biological evaluation of trans 6-methoxy-1,1-dimethyl-2-phenyl-3-aryl-2,3-dihydro-1H-inden-4-yloxyalkylamine derivatives against drug susceptible, non-replicating M. tuberculosis H37Rv and clinical multidrug resistant strains” (Bioorg Med Chem Lett, 2013).
